The values that follow come from ChEMBL document CHEMBL1135541, “Synthesis, biological properties, and molecular modeling investigation of the first potent, selective, and water-soluble human A(3) adenosine receptor antagonist” (J Med Chem, 2002).

The target in experiment [1] is T1, Adenosine receptor A3 (Homo sapiens, UniProt P0DMS8).
T1 sequence (P0DMS8 whole entry): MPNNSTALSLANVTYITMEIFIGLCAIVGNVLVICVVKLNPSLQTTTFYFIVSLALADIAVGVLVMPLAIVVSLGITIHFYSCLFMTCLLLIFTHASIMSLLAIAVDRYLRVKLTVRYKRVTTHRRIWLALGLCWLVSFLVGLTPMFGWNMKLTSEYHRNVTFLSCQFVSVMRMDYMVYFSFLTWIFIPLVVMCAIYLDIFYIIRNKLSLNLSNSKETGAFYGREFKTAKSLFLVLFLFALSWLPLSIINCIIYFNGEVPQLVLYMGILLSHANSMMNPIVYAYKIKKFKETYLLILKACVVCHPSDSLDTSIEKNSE
The experiment can be described thus: Inhibitory activity against Human Adenosine A3 receptor expressed in CHO cells. In kind it is cell-based.

The target in experiment [2] is Adenosine receptors; A2a & A3 (Homo sapiens) (UniProt P0DMS8+P29274). The experiment can be described thus: Selectivity as ratio of Ki for human adenosine A2A and A3 receptors. In kind it is protein assay.
Adenosine receptors; A2a & A3 (Homo sapiens), sequence (P29274 whole entry, looked up, one chain of several): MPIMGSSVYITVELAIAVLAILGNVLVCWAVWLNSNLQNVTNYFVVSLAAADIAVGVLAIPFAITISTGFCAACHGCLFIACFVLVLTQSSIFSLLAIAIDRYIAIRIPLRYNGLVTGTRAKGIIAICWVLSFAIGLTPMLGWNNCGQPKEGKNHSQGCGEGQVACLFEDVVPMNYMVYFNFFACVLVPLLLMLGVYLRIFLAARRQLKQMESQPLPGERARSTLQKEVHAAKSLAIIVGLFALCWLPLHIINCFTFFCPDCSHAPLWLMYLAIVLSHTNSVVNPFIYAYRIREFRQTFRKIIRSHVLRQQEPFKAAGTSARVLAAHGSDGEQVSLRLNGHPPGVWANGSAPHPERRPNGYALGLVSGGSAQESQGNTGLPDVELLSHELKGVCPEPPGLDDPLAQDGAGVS
In experiment [3] the target is Adenosine receptors; A2b & A3 (Homo sapiens) (UniProt P29275+P0DMS8). The experiment can be described thus: Selectivity as ratio of Ki for human A2b and A3 receptors. The format is protein assay.
Experiment [4] deals with Adenosine receptors; A1 & A3 (Homo sapiens) (UniProt P30542+P0DMS8). The experiment can be described thus: Selectivity as ratio of Ki for human adenosine A1 and A3 receptors. In kind it is protein assay.
The next experiment concerns the target Adenosine receptor A2a (Rattus norvegicus, UniProt P30543). Briefly: Binding affinity against rat adenosine A2A receptor […]. In kind it is cell-based.
The next experiment has as its target T2, Adenosine receptor A1 (Rattus norvegicus, UniProt P25099).
T2 sequence (P25099 whole entry): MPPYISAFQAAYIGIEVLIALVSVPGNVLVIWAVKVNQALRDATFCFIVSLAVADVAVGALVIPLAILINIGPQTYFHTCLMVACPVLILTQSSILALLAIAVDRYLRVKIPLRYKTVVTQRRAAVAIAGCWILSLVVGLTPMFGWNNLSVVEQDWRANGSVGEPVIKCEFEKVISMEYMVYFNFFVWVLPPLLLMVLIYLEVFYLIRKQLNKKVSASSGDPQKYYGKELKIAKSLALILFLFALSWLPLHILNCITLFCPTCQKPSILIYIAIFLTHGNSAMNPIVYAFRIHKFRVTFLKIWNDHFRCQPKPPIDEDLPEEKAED
Briefly: Binding affinity against rat adenosine A1 receptor […]. In kind it is cell-based.

For experiment [5], the target named is T3, Adenosine receptor A3 (Rattus norvegicus, UniProt P28647).
T3 sequence (P28647 whole entry): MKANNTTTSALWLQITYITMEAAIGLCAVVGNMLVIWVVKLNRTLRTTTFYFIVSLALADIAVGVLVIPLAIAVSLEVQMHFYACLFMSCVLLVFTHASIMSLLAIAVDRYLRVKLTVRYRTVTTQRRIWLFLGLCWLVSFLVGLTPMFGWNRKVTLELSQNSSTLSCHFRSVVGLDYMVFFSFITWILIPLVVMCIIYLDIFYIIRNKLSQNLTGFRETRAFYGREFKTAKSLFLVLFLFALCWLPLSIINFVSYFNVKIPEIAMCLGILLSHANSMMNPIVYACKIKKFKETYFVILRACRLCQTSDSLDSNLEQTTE
Briefly: Binding affinity against rat adenosine A3 receptor in RBL-2H3 cells. The format is cell-based.

Experiment [6] has as its target T4, Adenosine receptor A3 (Rattus norvegicus) (UniProt P28647).
T4 sequence (whole entry): T3 sequence (P28647 whole entry)
Conditions: RBL-2H3, 1 uM.
Description: Inhibitory activity against binding of [125I]I-AB-MECA to Adenosine A3 receptor in membranes of rat basophilic RBL-2H3 cells at 1 uM

The target in experiment [7] is T5, Adenosine receptor A3 (Homo sapiens) (UniProt P0DMS8).
T5 sequence (whole entry): T1 sequence (P0DMS8 whole entry)
The conditions noted are these: CHO.
Description: Antagonistic activity against Cl-IB-MECA26-induced inhibition of forskolin-stimulated cAMP in CHO cells expressing human Adenosine A3 receptor

Experiment [8] is described as follows: The hydrophobicity was measured in reverse-phase TLC experiments and reported as Rm values; Rm = log(1/Rf - 1).

Molecules are shown by their SMILES.

Adenosine receptor A2a, sequence (P30543 whole entry): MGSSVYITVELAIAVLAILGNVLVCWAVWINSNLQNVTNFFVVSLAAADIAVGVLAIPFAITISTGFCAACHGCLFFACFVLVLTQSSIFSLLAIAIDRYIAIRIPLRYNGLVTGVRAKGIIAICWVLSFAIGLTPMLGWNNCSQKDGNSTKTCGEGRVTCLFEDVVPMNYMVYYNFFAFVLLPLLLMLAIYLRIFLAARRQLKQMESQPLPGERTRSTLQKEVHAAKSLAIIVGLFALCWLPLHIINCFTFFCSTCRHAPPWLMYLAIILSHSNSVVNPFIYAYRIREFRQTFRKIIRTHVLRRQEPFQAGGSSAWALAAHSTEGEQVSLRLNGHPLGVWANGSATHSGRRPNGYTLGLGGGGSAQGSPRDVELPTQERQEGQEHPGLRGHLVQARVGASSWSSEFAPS

In general, IC50 refers to the concentration at which inhibition is half-maximal. Higher therefore signals weaker potency. The compound `Cn1cc2c(nc(NC(=O)Nc3ccccc3)n3nc(-c4ccco4)nc23)n1` came in with an IC50 against Adenosine receptor A3 [1] of 2.1 nM. Besides, the Selectivity worked out at 2380 in [2], 1390 in experiment [3] and 3710 in [4].

The Ki is a measure of affinity in units of concentration, obtained from inhibition or displacement. By inhibition is commonly meant the relative decrease from the control value, in per cent. The low end stands for little suppression, the high end for strong suppression. As to `Cn1cc2c(nc(NC(=O)Nc3ccncc3)n3nc(-c4ccco4)nc23)n1`, the Ki on Adenosine receptor A2a was 97.6 nM; at Adenosine receptor A1, 226 nM; at Adenosine receptor A3 [5], more than 1000 nM. For the same compound, in [6], the inhibition was 35%. The compound further returned a K B in experiment [7] of 0.2 nM. For the same compound, the Rm in [8] is 3.06.

Regarding `Cn1cc2c(nc(NC(=O)Nc3ccc(S(=O)(=O)O)cc3)n3nc(-c4ccco4)nc23)n1`, the figures for the Selectivity in [2], in experiment [3] and in experiment [4] were 24, more than 400 and more than 400, respectively.
